Reference: patent US20240010634A1, “PYRIMIDINYL SULFONAMIDES AS INHIBITORS OF ACK1/TNK2 TYROSINE KINASE” (H. LEE MOFFITT CANCER CENTER AND RESEARCH INSTITUTE, INC., priority 2020, published 2024)
“And” between values parts separate entries of the source, which are not always exact repeats. Identical values can stand only once.

Legend:
ACK1 autophosphorylation = details: heregulin-stimulated LNCaP cells; cited from earlier work
[1] = tested on: AR phosphorylation of Tyr-267; details: heregulin-stimulated LNCaP cells; cited from earlier work
[2] = tested on: cell line which is dependent upon ACK1; details: read-out: IC50, growth of a cell line dependent upon ACK1; cited from earlier work
ACK1 [3] = molecular target: T1, ACK1 (Homo sapiens (Human), UniProt Q07912); details: cited from earlier work
ACK1 [4] = molecular target: T1, ACK1; assay: ACK1 IC50 (Table 1, method not described); type: biochemical
ACK1 [5] = molecular target: T1, ACK1; assay: Reaction Biology 33P Hotspot assay; type: biochemical
MDA-MB-231 = assay: Cell viability (MDA-MB-231); type: cell-based; details: Homo sapiens
UKE1 = assay: Cell viability (UKE1); type: cell-based

T1 sequence (Q07912 whole entry): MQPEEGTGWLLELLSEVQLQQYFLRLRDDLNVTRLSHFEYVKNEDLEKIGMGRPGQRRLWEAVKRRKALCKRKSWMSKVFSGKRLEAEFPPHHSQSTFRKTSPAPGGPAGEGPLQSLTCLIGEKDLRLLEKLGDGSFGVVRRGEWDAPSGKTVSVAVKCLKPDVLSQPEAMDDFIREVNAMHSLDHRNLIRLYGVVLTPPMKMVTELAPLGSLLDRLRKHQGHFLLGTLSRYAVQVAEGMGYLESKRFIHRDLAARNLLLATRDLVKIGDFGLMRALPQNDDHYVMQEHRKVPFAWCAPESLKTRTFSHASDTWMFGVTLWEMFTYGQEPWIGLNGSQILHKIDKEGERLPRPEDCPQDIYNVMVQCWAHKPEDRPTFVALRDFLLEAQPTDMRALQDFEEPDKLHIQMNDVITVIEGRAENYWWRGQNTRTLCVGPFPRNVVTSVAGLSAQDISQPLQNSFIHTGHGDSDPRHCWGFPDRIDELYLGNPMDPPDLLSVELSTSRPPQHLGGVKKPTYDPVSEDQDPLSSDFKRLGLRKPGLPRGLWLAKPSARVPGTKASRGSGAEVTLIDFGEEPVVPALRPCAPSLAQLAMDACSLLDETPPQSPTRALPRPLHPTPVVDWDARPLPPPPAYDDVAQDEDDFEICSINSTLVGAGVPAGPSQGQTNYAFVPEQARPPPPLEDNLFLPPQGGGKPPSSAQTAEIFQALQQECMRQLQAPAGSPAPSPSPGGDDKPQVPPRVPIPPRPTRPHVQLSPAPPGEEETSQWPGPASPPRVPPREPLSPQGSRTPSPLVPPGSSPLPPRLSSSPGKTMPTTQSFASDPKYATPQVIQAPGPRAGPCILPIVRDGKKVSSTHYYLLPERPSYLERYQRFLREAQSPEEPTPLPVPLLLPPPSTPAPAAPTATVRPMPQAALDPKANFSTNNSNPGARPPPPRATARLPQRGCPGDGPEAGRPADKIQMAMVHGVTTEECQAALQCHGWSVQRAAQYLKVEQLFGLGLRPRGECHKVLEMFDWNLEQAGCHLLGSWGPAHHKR

| IC50 (ACK1 [5]) | EC50 (MDA-MB-231) [nM] | SMILES | EC50 (UKE1) [nM] | further results |
| --- | --- | --- | --- | --- |
| 19.8 nM | 11000 | COc1cc(-n2cccn2)ccc1Nc1ncc(C)c(Nc2cccc(NS(=O)(=O)C(C)(C)C)c2)n1 [N-(3-((2-((2-methoxy-4-(1H-pyrazol-1-yl)phenyl)amino)-5-methylpyrimidin-4-yl)amino)phenyl)-2-methylpropane-2-sulfonamide] | > 10000 |  |
| 13 nM and 13.8 nM | 213 | Cc1cnc(Nc2ccc(N3CCN(C)CC3)c(OC(C)C)c2)nc1Nc1cccc(NS(=O)(=O)C(C)(C)C)c1 [N-(3-((2-((3-isopropoxy-4-(4-methylpiperazin-1-yl)phenyl)amino)-5-methylpyrimidin-4-yl)amino)phenyl)-2-methylpropane-2-sulfonamide] | 470 |  |
| 21.9 nM |  | COc1cc(N2CCN(C)CC2)ccc1Nc1ncc(C)c(Nc2cccc(NS(=O)(=O)C(C)(C)C)c2)n1 [N-(3-((2-((2-methoxy-4-(4-methylpiperazin-1-yl)phenyl)amino)-5-methylpyrimidin-4-yl)amino)phenyl)-2-methylpropane-2-sulfonamide] |  | IC50 (ACK1 [4]): 34.5 nM |
| 15.9 nM |  | COc1cc(Nc2ncc(C)c(Nc3ccc(NS(=O)(=O)C(C)(C)C)cc3)n2)ccc1N1CCN(C)CC1 [N-(4-((2-((3-methoxy-4-(4-methylpiperazin-1-yl)phenyl)amino)-5-methylpyrimidin-4-yl)amino)phenyl)-2-methylpropane-2-sulfonamide] |  |  |
| 15 nM |  | CC(C)Oc1cc(Nc2ncc(Cl)c(Nc3cccc(NS(=O)(=O)C(C)(C)C)c3)n2)ccc1N1CCN(C)CC1 [N-(3-((5-chloro-2-((3-isopropoxy-4-(4-methylpiperazin-1-yl)phenyl)amino)pyrimidin-4-yl)amino)phenyl)-2-methylpropane-2-sulfonamide] |  |  |

Further lines, the molecule ahead of its results:

| SMILES | IC50 (ACK1 [5]) | EC50 (MDA-MB-231) [nM] | EC50 (UKE1) [nM] | further results |
| --- | --- | --- | --- | --- |
| Cc1nc(Nc2ncc(C(=O)Nc3c(C)cccc3Cl)s2)cc(N2CCN(CCO)CC2)n1 [Dasatinib] |  |  |  | IC50 (ACK1 autophosphorylation): < 5 nM; IC50 [1]: < 5 nM |
| CN(C)CCOc1ccc(-c2oc3ncnc(NCC4SCCS4)c3c2-c2ccccc2)cc1 [Compound 1c] |  |  |  | IC50 [2]: 5 nM; Ki (ACK1 [3]): 0.3 nM |
| COc1cc(N2CCN(C)CC2)ccc1Nc1ncc(C)c(Nc2ccc(Cl)c(NS(=O)(=O)C(C)(C)C)c2)n1 [N-(2-chloro-5-((2-((2-methoxy-4-(4-methylpiperazin-1-yl)phenyl)amino)-5-methylpyrimidin-4-yl)amino)phenyl)-2-methylpropane-2-sulfonamide] |  |  |  | IC50 (ACK1 [4]): 33.2 nM |
| Cc1cnc(Nc2ccc(N3CCN(C)CC3)c(OC(C)C)c2)nc1Nc1ccc(Cl)c(NS(=O)(=O)C(C)(C)C)c1 [N-(2-chloro-5-((2-((3-isopropoxy-4-(4-methylpiperazin-1-yl)phenyl)amino)-5-methylpyrimidin-4-yl)amino)phenyl)-2-methylpropane-2-sulfonamide] | 14 nM | 220 | 850 |  |
| Cc1cnc(Nc2ccc(N3CCN(C)CC3)cc2OC2CCC2)nc1Nc1cccc(NS(=O)(=O)C(C)(C)C)c1 [N-(3-((2-((2-cyclobutoxy-4-(4-methylpiperazin-1-yl)phenyl)amino)-5-methylpyrimidin-4-yl)amino)phenyl)-2-methylpropane-2-sulfonamide] | 26.2 nM |  |  |  |
